Test results: ChEMBL document CHEMBL1201862, “PubChem BioAssay data set” (2004)
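How tested: cells in 96-well plates exposed to compound for 48 hours at five concentrations. GI50 = concentration required for 50% inhibition of growth.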 Active and inactive are the calls of the source. No stated cut-off is given here; in the data, active = GI50 up to about 1.1 µM and inactive = higher.

Tests used:
Test in all cases: NCI tumour cell line growth inhibition, 48 h
K562 = tested on: K562
CCRF-CEM = tested on: CCRF-CEM
KM12 = tested on: KM12
U-251 = tested on: U-251
MDA-MB-435 = tested on: MDA-MB-435
RXF 393 = tested on: RXF 393
RPMI-8226 = tested on: RPMI-8226
OVCAR-8 = tested on: OVCAR-8
MOLT-4 = tested on: MOLT-4
SN12C = tested on: SN12C
A549 = tested on: A549
HCT-15 = tested on: HCT-15
786-0 = tested on: 786-0
SR = tested on: SR
SNB-75 = tested on: SNB-75
NCI-H23 = tested on: NCI-H23
UO-31 = tested on: UO-31
NCI-H522 = tested on: NCI-H522
OVCAR-4 = tested on: OVCAR-4
SW-620 = tested on: SW-620
UACC-257 = tested on: UACC-257
DU-145 = tested on: DU-145
SNB-19 = tested on: SNB-19
Hs-578T = tested on: Hs-578T
M14 = tested on: M14
MCF7 = tested on: MCF7
HCT-116 = tested on: HCT-116
BT-549 = tested on: BT-549
CAKI-1 = tested on: CAKI-1
SK-MEL-28 = tested on: SK-MEL-28
SF-539 = tested on: SF-539
PC-3 = tested on: PC-3
MDA-MB-231 = tested on: MDA-MB-231
TK-10 = tested on: TK-10
HL-60 = tested on: HL-60
NCI-H460 = tested on: NCI-H460
IGROV-1 = tested on: IGROV-1
Malme-3M = tested on: Malme-3M
NCI/ADR-RES = tested on: NCI/ADR-RES
COLO 205 = tested on: COLO 205
A498 = tested on: A498
SK-OV-3 = tested on: SK-OV-3
SK-MEL-5 = tested on: SK-MEL-5
EKVX = tested on: EKVX
LOX IMVI = tested on: LOX IMVI
HT-29 = tested on: HT-29
SK-MEL-2 = tested on: SK-MEL-2
HCC 2998 = tested on: HCC 2998
OVCAR-5 = tested on: OVCAR-5
T47D = tested on: T47D
UACC-62 = tested on: UACC-62
NCI-H226 = tested on: NCI-H226
OVCAR-3 = tested on: OVCAR-3
SF-268 = tested on: SF-268

Measured: GI50

CSC1=C(C(=O)Nc2ccc(Cl)cc2)C(N)=NC1=O
inactive: K562 > 100 µM | CCRF-CEM > 100 µM | KM12 > 100 µM | U-251 > 100 µM | MDA-MB-435 > 100 µM | RXF 393 > 100 µM | RPMI-8226 > 100 µM | OVCAR-8 > 100 µM | MOLT-4 > 100 µM | SN12C > 100 µM | A549 > 100 µM | 786-0 > 100 µM | SR 37.8 µM | SNB-75 > 100 µM | NCI-H23 > 100 µM | UO-31 45.1 µM | NCI-H522 > 100 µM | OVCAR-4 > 100 µM | SW-620 > 100 µM | UACC-257 > 100 µM | DU-145 > 100 µM | SNB-19 > 100 µM | Hs-578T > 100 µM | M14 > 100 µM | MCF7 > 100 µM | HCT-116 > 100 µM | BT-549 > 100 µM | CAKI-1 29 µM | SK-MEL-28 > 100 µM | SF-539 > 100 µM | PC-3 > 100 µM | MDA-MB-231 > 100 µM | TK-10 > 100 µM | HL-60 > 100 µM | NCI-H460 > 100 µM | IGROV-1 19.7 µM | Malme-3M > 100 µM | NCI/ADR-RES > 100 µM | COLO 205 > 100 µM | A498 > 100 µM | SK-OV-3 > 100 µM | SK-MEL-5 > 100 µM | EKVX > 100 µM | LOX IMVI > 100 µM | HT-29 > 100 µM | SK-MEL-2 > 100 µM | HCC 2998 > 100 µM | OVCAR-5 > 100 µM | T47D > 100 µM | UACC-62 > 100 µM | NCI-H226 > 100 µM | OVCAR-3 > 100 µM | SF-268 > 100 µM
> 100 µM: HCT-15
